Results published in patent publication US9388147B2 (Receptos, Inc., priority 2009, dated 2016).

System: TNBS induced colitis
Assay: TNBS Crohn's colitis model in rats
Type: in vivo, Sprague-Dawley rat
Details: 1 mg/kg oral daily for six days, 31% in the diseased rats
Method: Male Sprague-Dawley rats (180-200 g) were acclimatized for seven days and then assigned to 8 rats per group so that each group had approximately the same mean weight. Twenty-four hours prior to disease initiation, rats are deprived of food. Rats were anaesthetized and weighed, then 80 mg/kg TNBS solution (50% TNBS: 50% 200 proof ethanol) was instilled into colon via a 20 g feeding needle inserted into the anus. The rats were maintained in head down position until recovery from anesthesia. Daily oral dosing was initiated 2 h post TNBS-instillation for six days. Prednisolone served as a positive control and was administered orally daily at 10 mg/kg. Body weights were monitored daily and 24 h after the last dose, all groups are terminated. The colon was removed, flushed of fecal matter and examined for gross changes including strictures, adhesions and ulcers. The colon length, weight of the distal 2 cm, and wall thickness was recorded.

CC(C)Oc1ccc(-c2nc(-c3cccc4c3CC[C@H]4NCCO)no2)cc1C#N [Compound 85, (R)-5-(3-(1-(2-hydroxyethylamino)-2,3-dihydro-1H-inden-4-yl)-1,2,4-oxadiazol-5-yl)-2-isopropoxybenzonitrile]
TNBS induced colon shortening: 15%
